Experimental data: patent publication US6342335B1, “Polymethine compounds, method of producing same, and use thereof” (Yamamoto Chemicals, Inc., priority 1999, dated 2002)

Experiments:
[1] = Solubility test in methyl ethyl ketone; format: physicochemical; details: 25° C. overnight, visual inspection for insoluble matter
Protocol: The solubility of the polymethine compound of the invention in methyl ethyl ketone as well as the solubilities of said known Compound A and Compound B were measured. Solubility measurements were carried out by the following method.
A 5 ml screw tube was charged with 200 mg of each polymethine compound and 1 ml of methyl ethyl ketone and agitated for dissolution with Mix-Rotor at 25° C. overnight. Each sample was visually inspected for insoluble matter. When no insoluble residue was found, the solubility was rated ≧20%. When an insoluble residue was found, the solubility was rated less than 20%.

[2] = Maximum absorption wavelength (λmax) in diacetone alcohol; format: physicochemical
Protocol: The maximum absorption wavelength (λmax) of the polymethine compound of the present invention in diacetone alcohol as well as those of known Compound A and Compound B were measured.

| Solubility (g/ml) [1] | λmax [2] [nm] | SMILES |
| --- | --- | --- |
| ≧20% | 822 | COCCN1/C(=C\C=C2/CCCC(/C=C/C3=[N+](CCOC)c4c(C)cc(OC)cc4C3(C)C)=C2Cl)C(C)(C)c2cc(OC)cc(C)c21 [Compound (55), 2-(2-{2-chloro-3-[(1,3-dihydro-3,3,7-trimethyl-5-methoxy-1-methoxyethyl-2H-indol-2-ylidene)ethylidene]-1-cyclohexen-1-yl}ethenyl)-3,3,7-trimethyl-5-methoxy-1-methoxyethylindolium=tetrafluoroborate] |
|  | 788 | COCCN1/C(=C\C=C2/CCCC(/C=C/C3=[N+](CCOC)c4ccccc4C3(C)C)=C2Cl)C(C)(C)c2ccccc21 [Compound A, reference compound] |
